# Tests used:
# [1] = biological target: Neisseria polysaccharea amylosucrase 1G5A (parent SEQ ID NO: 13) variant F290K (Neisseria polysaccharea, UniProt Q9ZEU2, F298K/G545D); assay: Kinetic parameters towards sucrose donor, variant F290K; format: biochemical; conditions: F290K could not be saturated with sucrose
# Procedure: Production and purification of AS variants were performed as previously described (ref. 45). […] The enzymes were desalted by size exclusion chromatography using P6DG columns (GE Healthcare Biosciences) at +4° C. and stored in elution buffer (50 mM Tris-HCl, pH 7.0, 150 mM NaCl) at −80° C. The protein content was determined by micro-Bradford method, using bovine serum albumin as standard (ref. 56).
# All assays were performed at 30° C. in 50 mM Tris buffer, pH=7.0. For the acceptor reactions, F290D, F290K and ASNPwt (1G5A) were tested on α-D-GlcpNAc-OAll.
# Enzyme assays were carried out in a total volume of 2 mL containing pure enzyme (0.115 mg and 0.106 mg when using ASNPwt and F290K, respectively). Catalytic efficiency (Eff=kcat/KM) of ASNPwt and F290K variant was determined with both sucrose (D=Donor) and α-D-GlcpNAc-OAll (A=Acceptor) as variable substrates. […] For each experiment, the reaction velocity corresponding to the acceptor glucosylation was determined by the formation of α-D-Glcp-(1→4)-α-D-GlcpNAc-OAll (called Vi(Dp2)), corresponding to the kinetics of the reaction of interest.
# Initial velocities were fitted to the Michaelis-Menten equation using Sigma-Plot. As saturation was not achieved with the mutant, efficiency was calculated by linear regression analysis of the velocity versus substrate concentration plot. […]
# [2] = biological target: Neisseria polysaccharea amylosucrase 1G5A (parent SEQ ID NO: 13) variant A289P-F290C (Neisseria polysaccharea, UniProt Q9ZEU2, A297P/F298C/G545D); assay: Kinetic parameters towards sucrose donor, double mutant A289P-F290C; format: biochemical; conditions: sucrose donor (0-500 mM); Eadie-Hofstee plot; 30° C., pH 7.0
# Procedure: (§1) The double mutants A289P-F290C, A289P-F290I and A289P-F290L were produced and purified, as previously described in Example 1-1. The protein content was determined by the Nanodrop ND-1000 spectrophotometer. These mutants were tested on sucrose alone or supplemented with α-D-GlcpNAc-OAll acceptor, and compared to wtAS and F290K. Assays were performed at 30° C. in 50 mM Tris-HCl buffer, pH=7.0.
# (§2) Enzyme assays were carried out in a total volume of 2 mL containing pure enzyme (0.073 mg, 0.153 mg and 0.092 mg when using A289P-F290C, A289P-F2901 and A289P-F290L, respectively).
# (§3) Kinetic studies of AS variants were performed in the presence of sucrose (0-500 mM). At regular time intervals (2-5 min), aliquots (200 μL) were removed, heated (95° C., 2 min) and centrifuged (18000 g, 5 min) All the samples were filtered on a 0.22 μm membrane and analyzed using HPLC material previously described. The initial rate of sucrose consumed, corresponding to the initial rate of fructose released, was expressed in mole of fructose released per minute and per gram of enzyme. The kinetic parameters kcat and Km were calculated using Eadie-Hofstee plot.
# [3] = biological target: Neisseria polysaccharea amylosucrase 1G5A (parent SEQ ID NO: 13) variant A289P-F290I (Neisseria polysaccharea, UniProt Q9ZEU2, A297P/F298I/G545D); assay: Kinetic parameters towards sucrose donor, double mutant A289P-F290I; format: biochemical; conditions: sucrose donor (0-500 mM); Eadie-Hofstee plot; 30° C., pH 7.0
# Procedure: as §1, §2, §3
# [4] = biological target: Neisseria polysaccharea amylosucrase 1G5A (parent SEQ ID NO: 13) variant A289P-F290L (Neisseria polysaccharea, UniProt Q9ZEU2, A297P/F298L/G545D); assay: Kinetic parameters towards sucrose donor, double mutant A289P-F290L; format: biochemical; conditions: sucrose donor (0-500 mM); Eadie-Hofstee plot; 30° C., pH 7.0
# Procedure: as §1, §2, §3
# [5] = test system: Neisseria polysaccharea amylosucrase 1G5A, wild type (wtAS, ASNPwt), SEQ ID NO: 13; conditions: sucrose donor, data from ref. 83; cited from earlier work
smiles,measurement,setting,value
OC[C@H]1O[C@@](CO)(O[C@H]2O[C@H](CO)[C@@H](O)[C@H](O)[C@H]2O)[C@@H](O)[C@@H]1O [sucrose],affinity for sucrose,[1],poor affinity for sucrose
same,kcat,[2],2.8 s⁻¹
same,kcat,[3],1.1 s⁻¹
same,kcat,[4],2.1 s⁻¹
same,Km,[5],50.2 mM
same,kcat,[5],1.3 s⁻¹

# From patent publication US20110086767A1, “MUTANTS OF GLYCOSIDE HYDROLASES AND USES THEREOF FOR SYNTHESIZING COMPLEX OLIGOSACCHARIDES AND DISACCHARIDE INTERMEDIATES” (Institut Pasteur, priority 2008, published 2011)
